Data as given in US8067410B2, “Phenolic and catecholic amines and prodrugs thereof” (H. Lundbeck A/S, priority 2008, dated 2011).
Structures can show the parent of a compound that is named as a salt. Where two headings read alike, the source gives them in different places.

Assays:
[1] = target: human recombinant D1 receptor (Homo sapiens, UniProt P21728); assay: D1 cAMP assay; assay type: cell-based
Procedure: The ability of the compounds to either stimulate or inhibit the D1 receptor mediated cAMP formation in CHO cells stably expressing the human recombinant D1 receptor was measured as follows. Cells were seeded in 96-well plates at a concentration of 11000 cells/well 3 days prior to the experiment. On the day of the experiment the cells were washed once in preheated G buffer (1 mM MgCl2, 0.9 mM CaCl2, 1 mM IBMX (3-i-butyl-1-methylxanthine) in PBS (phosphate buffered saline)) and the assay was initiated by addition of 100 micro-L of a mixture of 30 nM A68930 and test compound diluted in G buffer (antagonism) or test compound diluted in G buffer (agonism). The cells were incubated for 20 minutes at 37° C. and the reaction was stopped by the addition of 100 micro-L S buffer (0.1 M HCl and 0.1 mM CaCl2) and the plates were placed at 4° C. for 1 h. 68 micro-L N buffer (0.15 M NaOH and 60 mM NaOAc) was added and the plates were shaken for 10 minutes. 60 micro-1 of the reaction were transferred to cAMP FlashPlates (DuPont NEN) containing 40 micro-L 60 mM Sodium acetate pH 6.2 and 100 micro-L IC mix (50 mM Sodium acetate pH 6.2, 0.1% sodium azide, 12 mM CaCl2 1% BSA (bovine serum albumin) and 0.15 micro-Ci/mL ^125I-cAMP) were added. Following an 18 h incubation at 4° C. the plates were washed once and counted in a Wallac TriLux counter.

human D2 receptor = target: T1, human D2 receptor (Homo sapiens, UniProt P14416); assay: D2 cAMP assay; assay type: cell-based
T1 construct: expressed in transfected cells; host or cells: CHO cells
Procedure: The ability of the compounds to either stimulate or inhibit the D2 receptor mediated inhibition of cAMP formation in CHO cells transfected with the human D2 receptor was measure as follows. Cells were seeded in 96 well plates at a concentration of 8000 cells/well 3 days prior to the experiment. On the day of the experiment the cells were washed once in preheated G buffer (1 mM MgCl2, 0.9 mM CaCl2, 1 mM IBMX in PBS) and the assay was initiated by addition of 100 micro-1 of a mixture of 1 micro-M quinpirole, 10 microM forskolin and test compound in G buffer (antagonism) or 10 micro-M forskolin and test compound in G buffer (agonism). The cells were incubated 20 minutes at 37° C. and the reaction was stopped by the addition of 100 micro-1 S buffer (0.1 M HCl and 0.1 mM CaCl2) and the plates were placed at 4° C. for 1 h. 68 micro-L N buffer (0.15 M NaOH and 60 mM Sodium acetate) were added and the plates were shaken for 10 minutes. 60 micro-L of the reaction were transferred to cAMP FlashPlates (DuPont NEN) containing 40 micro-L 60 mM NaOAc pH 6.2 and 100 micro-L IC mix (50 mM NaOAc pH 6.2, 0.1% Sodium azide, 12 mM CaCl2, 1% BSA and 0.15 micro-Ci/ml ^125I-cAMP) were added. Following an 18 h incubation at 4° C. the plates were washed once and counted in a Wallac TriLux counter.

[2] = cAMP formation in CHO cells stably expressing the human recombinant D1 receptor, read-out: D1 EC 50
[3] = inhibition of forskolin-stimulated cAMP formation in CHO cells transfected with the human D2 receptor, read-out: D2 EC 50

T1 sequence (P14416 whole entry): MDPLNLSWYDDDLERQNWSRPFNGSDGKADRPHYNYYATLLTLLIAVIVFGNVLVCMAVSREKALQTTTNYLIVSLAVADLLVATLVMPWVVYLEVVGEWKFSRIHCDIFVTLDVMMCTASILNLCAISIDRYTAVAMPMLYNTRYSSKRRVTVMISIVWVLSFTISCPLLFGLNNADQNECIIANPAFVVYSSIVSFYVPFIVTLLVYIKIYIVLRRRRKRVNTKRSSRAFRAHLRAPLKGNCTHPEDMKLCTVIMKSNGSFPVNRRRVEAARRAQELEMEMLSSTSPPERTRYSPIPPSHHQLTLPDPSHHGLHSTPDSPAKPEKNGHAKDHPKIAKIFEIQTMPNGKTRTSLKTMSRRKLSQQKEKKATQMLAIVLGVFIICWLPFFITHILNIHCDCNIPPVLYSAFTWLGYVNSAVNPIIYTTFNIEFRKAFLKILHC
human recombinant D1 receptor, sequence (P21728 whole entry): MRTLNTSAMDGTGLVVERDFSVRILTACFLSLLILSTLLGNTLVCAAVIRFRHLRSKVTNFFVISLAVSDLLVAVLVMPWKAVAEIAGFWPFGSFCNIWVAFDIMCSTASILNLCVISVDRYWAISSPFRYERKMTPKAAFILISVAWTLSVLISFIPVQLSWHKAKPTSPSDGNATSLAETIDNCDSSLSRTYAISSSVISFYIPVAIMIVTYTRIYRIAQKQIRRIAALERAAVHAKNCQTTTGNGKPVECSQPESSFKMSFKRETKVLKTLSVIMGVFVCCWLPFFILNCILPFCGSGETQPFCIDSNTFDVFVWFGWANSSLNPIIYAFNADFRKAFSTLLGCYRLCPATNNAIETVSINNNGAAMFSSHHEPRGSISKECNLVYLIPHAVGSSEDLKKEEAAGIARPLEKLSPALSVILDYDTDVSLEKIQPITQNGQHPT

CCCN1C[C@H](Cn2ccnc2)O[C@@H]2Cc3c(cccc3OC)C[C@H]21 [Example 3e, (2R,4aR,10aR)-2-Imidazol-1-ylmethyl-9-methoxy-4-n-propyl-3,4,4a,5,10,10a-hexahydro-2H-naphtho[2,3-b][1,4]oxazine]
EC50 [1]: 5800 nM | EC50 (human D2 receptor): 30 nM

Oc1cccc2c1C[C@@H]1OCCN(CC3CC3)[C@H]1C2 [Example 5d2, (4aS,10aS)-4-cyclo-Propylmethyl-3,4,4a,5,10,10a-hexahydro-2H-naphtho[2,3-b][1,4]oxazin-9-ol hydrochloride]
EC50 [1]: > 10000 nM | EC50 (human D2 receptor): 1400 nM

CCCN1CCO[C@@H]2Cc3c(ccc(O)c3O)C[C@H]21 [Example 7, (4aR,10aR)-4-n-Propyl-3,4,4a,5,10,10a-hexahydro-2H-naphtho[2,3-b][1,4]oxazine-8,9-diol trifluoroacetate]
EC50 [1]: 200 nM | EC50 (human D2 receptor): 0.15 nM

CCCN1C[C@H](C)O[C@@H]2Cc3c(O)cccc3C[C@H]21 [Example 5k, (2S,4aR,10aR)-2-Methyl-4-n-propyl-3,4,4a,5,10,10a-hexahydro-2H-naphtho[2,3-b][1,4]oxazin-9-ol trifluoroacetate]
EC50 [1]: 180 nM | EC50 (human D2 receptor): 2 nM

CCCN1CCO[C@@H]2Cc3c(ccc4c3OCO4)C[C@H]21 [Example 8c, (6aR,10aR)-7-n-Propyl-6a,7,8,9,10a,11-hexahydro-6H-1,3,10-trioxa-7-aza-cyclo-penta[a]anthracene trifluoroacetate]
EC50 [1, 2]: > 10000 nM | EC50 (human D2 receptor; [3]): 140 nM

CCCN1C[C@@H](CSC)O[C@@H]2Cc3c(cccc3OC)C[C@H]21 [Example 3c, (2S,4aR,10aR)-9-Methoxy-2-methylsulfanylmethyl-4-n-propyl-3,4,4a,5,10,10a-hexahydro-2H-naphtho[2,3-b][1,4]oxazine]
EC50 [1, 2]: > 10000 nM | EC50 (human D2 receptor; [3]): 110 nM
